Experimental data: US20250236597A1, “DEUTERATED BENZODIAZEPINE ANALOGS AND METHODS OF USE IN TREATING CANCER” (University of Cincinnati, priority 2022, published 2025)

Legend:
Assay type in all cases: cell-based
tumors = assay: Activity summary of exemplary deuterated compounds (Table 1); details: Table 1 summary, result in words
[1] = tested on: human patient-derived cancer cell lines; assay: Cytotoxicity against the tested cancer cell lines (overall statement); details: A375, LN18 and H1792 cells, result in words
Procedure: (§1) Cytotoxicity of DiD3, DiD5, QHD3, QHD5, KRMD3, and KRMD5 was assessed in A375 human melanoma cells, LN18 human glioma cells, and H1792 human NSCLC cells.
(§2) Each compound powder was weighed and dissolved in DMSO to a concentration of 40 mM. Dissolved compounds were stored at 4° C. Drug dilutions were prepared in phenol free medium as follows:
(§3) Cell culture process: Optimum cell number for each cell line was determined and the cell number giving about 1.0 OD value after one hour of incubation with the CellTiter 96® AQueous One Solution Cell Proliferation Assay reagent (Promega) was selected for cell proliferation experiments. On Day 1, cells were trypsinized, counted, and diluted to: A375 human melanoma cells: 30000 cells/mL (3000 cells/100 μL or 3000 cells/well); LN18 human glioma cells: 50000 cells/mL (5000 cells/100 μL or 5000 cells/well); and H1792 human NSCLC cells: 12000 cells/mL (1200 cells/100 μL or 1200 cells/well).
100 μL of cell suspension was added to 96 well plates. Rows B to G and columns 2 to 11 were seeded with cells. […]
Data analysis: the average OD from the five wells containing medium and no cells (A2 to A6) was calculated and the value subtracted from each individual OD reading. The OD readings for each drug dilution was normalized to DMSO control, set as 100% cell viability/proliferation. […]

H1792 human NSCLC cells = assay: Cytotoxicity assay (CellTiter 96 AQueous One), H1792 cells; details: NCI-H1792, 72 h, read-out: Cytotoxicity of deuterated compounds (IC50, μM)
Procedure: as §1, §2, §3
(§4) 100 μL of cell suspension was added to 96 well plates. Rows B to G and columns 2 to 11 were seeded with cells. Outer wells around the plate were filled with 100 μL phosphate buffered saline (PBS), except wells A2 to A6, which were filled with medium without cells. Cells were then incubated 24 hours and allowed to attach.
(§5) On Day 2: drug and controls were added to the plated cells as follows: background control: medium in wells A2 to A6 was aspirated and replaced with 100 μL fresh medium; control and test dilutions: medium was carefully aspirated and 100 μL of DMSO control or diluted drug was added to 5 consecutive wells in the same row. After drug addition, plates were returned to the incubator for 48 to 72 hours.
(§6) On Day 5 or 6:20 μL of CellTiter 96® AQueous One Solution Cell Proliferation Assay reagent (Promega) was added to each control or test well, incubated 1 to 2 hours, and then OD was acquired at 490 nm.
(§7) Data analysis: the average OD from the five wells containing medium and no cells (A2 to A6) was calculated and the value subtracted from each individual OD reading. The OD readings for each drug dilution was normalized to DMSO control, set as 100% cell viability/proliferation. Log drug concentration versus percentage viability was then plotted using GraphPad Prism.

[2] = tested on: A375 human melanoma cells; assay: Cytotoxicity assay (CellTiter 96 AQueous One), A375 cells; details: A-375, 72 h, read-out: Cytotoxicity of deuterated compounds (IC50, μM)
Procedure: as §1, §2, §3, §4, §5, §6, §7

LN18 human glioma cells = assay: Cytotoxicity assay (CellTiter 96 AQueous One), LN18 cells; details: LN-18, 72 h, read-out: Cytotoxicity of deuterated compounds (IC50, μM)
Procedure: as §1, §2, §3, §4, §5, §6, §7

Which results are given for `[2H]C([2H])([2H])N1C(=O)CN=C(c2ccccc2)c2cc(Cl)ccc21` [DiD3]?
Activity (tumors): Inactive; Cytotoxicity against the tested human patient-derived cancer cell lines [1]: non-cytotoxic

`[2H]C1([2H])N=C(c2ccccc2)c2cc(Cl)ccc2N(C([2H])([2H])[2H])C1=O` [DiD5] was tested. Which Activity (tumors) did it give?
The Activity was “Inactive”.

What about the “Cytotoxicity against the tested human patient-derived cancer cell lines” value [1] of the same compound?
The value was “non-cytotoxic”.

How did the Activity (tumors) turn out when `[2H]C([2H])([2H])N1C(=O)CN=C(c2ccccc2F)c2cc(C#C)ccc21` [KRMD3] was run?
Its Activity is “Active against tumors”.

What about the IC50 (H1792 human NSCLC cells) of the same compound?
Its IC50 is 2.13 µM.

What about the IC50 [2] of the same compound?
The IC50 was 0.35 µM.

And the IC50 (LN18 human glioma cells)?
The IC50 was 2.43 µM.

How did the Activity (tumors) turn out when `[2H]C1([2H])N=C(c2ccccc2F)c2cc(C#C)ccc2N(C([2H])([2H])[2H])C1=O` [KRMD5] was run?
The Activity was “Active against tumors”.

What about the IC50 (H1792 human NSCLC cells) of the same compound?
Its IC50 is 2.52 µM.

What about the IC50 [2] of the same compound?
The IC50 was 0.63 µM.

What about the IC50 (LN18 human glioma cells) of the same compound?
Its IC50 is 2.67 µM.

For `[2H]C([2H])([2H])N1C(=O)CN=C(c2ccccc2)c2cc(C#C)ccc21` [QHD3], which Activity (tumors) is on record?
Its Activity is “Active against tumors”.

What about the IC50 (H1792 human NSCLC cells) of the same compound?
The IC50 was 1.75 µM.

What about the IC50 [2] of the same compound?
Its IC50 is 0.31 µM.

What about the IC50 (LN18 human glioma cells) of the same compound?
Its IC50 is 1.81 µM.

With `[2H]C1([2H])N=C(c2ccccc2)c2cc(C#C)ccc2N(C([2H])([2H])[2H])C1=O` [QHD5] as the compound, how does the Activity (tumors) read?
Its Activity is “Active against tumors”.

And the IC50 (H1792 human NSCLC cells)?
Its IC50 is 1.98 µM.

What about the IC50 [2] of the same compound?
The IC50 was 0.46 µM.

What about the IC50 (LN18 human glioma cells) of the same compound?
Its IC50 is 2.51 µM.
